Assay results as given in paper PMC7044277 (Nature Communications, 2020).
Several values for one entry are separate records, joined by “and”; a condition that tells them apart may be missing. Equal entries are not always repeated.

How the values were obtained:
[1] = test system: serotonin receptor (subtype not given; reference agonist serotonin); experiment: β-arrestin2 recruitment (Tango), agonist activity, source data Fig_S10l; type: cell-based, human; details: drug alone
[2] = biological target: 5HT2A (Homo sapiens, UniProt P28223); experiment: β-arrestin2 recruitment (Tango); type: cell-based; details: single replicate values
5HT2A, sequence (P28223 whole entry): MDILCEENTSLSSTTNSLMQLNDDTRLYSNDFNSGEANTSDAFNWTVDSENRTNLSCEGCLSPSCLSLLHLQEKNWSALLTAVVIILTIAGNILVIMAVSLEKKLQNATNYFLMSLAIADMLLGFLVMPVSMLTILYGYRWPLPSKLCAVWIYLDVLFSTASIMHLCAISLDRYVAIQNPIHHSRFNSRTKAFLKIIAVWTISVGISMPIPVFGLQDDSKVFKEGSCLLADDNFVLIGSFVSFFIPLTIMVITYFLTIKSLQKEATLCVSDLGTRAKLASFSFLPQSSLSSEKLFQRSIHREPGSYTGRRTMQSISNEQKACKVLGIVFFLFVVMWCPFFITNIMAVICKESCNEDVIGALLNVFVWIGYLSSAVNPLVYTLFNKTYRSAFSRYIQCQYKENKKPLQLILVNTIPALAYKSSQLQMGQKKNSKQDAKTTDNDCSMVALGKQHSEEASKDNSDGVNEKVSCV

[3] = biological target: DRD3 (Homo sapiens, UniProt P35462); experiment: β-arrestin2 recruitment (Tango); type: cell-based; details: DRD3, Tango
DRD3, sequence (P35462 whole entry): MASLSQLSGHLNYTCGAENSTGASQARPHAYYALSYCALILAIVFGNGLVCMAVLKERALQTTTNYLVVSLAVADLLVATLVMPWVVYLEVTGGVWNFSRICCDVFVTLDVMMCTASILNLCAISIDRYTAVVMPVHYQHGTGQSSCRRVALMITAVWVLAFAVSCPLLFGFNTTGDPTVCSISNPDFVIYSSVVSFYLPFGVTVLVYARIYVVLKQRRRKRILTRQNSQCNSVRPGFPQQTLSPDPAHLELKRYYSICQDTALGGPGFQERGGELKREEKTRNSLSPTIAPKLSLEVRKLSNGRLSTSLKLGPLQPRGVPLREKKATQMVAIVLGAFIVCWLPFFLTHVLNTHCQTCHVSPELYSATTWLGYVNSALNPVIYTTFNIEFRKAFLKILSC

[4] = biological target: DRD2 (D2 long receptor) (Homo sapiens, UniProt P14416); experiment: Gαi/o-mediated cAMP inhibition (GloSensor split-luciferase cAMP reporter), HEK293T; type: cell-based; details: for response, Fig_S11d dose-response source data: replicate values; for Response, Fig_S11b dose-response: individual replicates;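 as to all read-outs here: compounds applied 15 min at room temperature, then luciferin plus 400 nM isoproterenol to raise cAMP through endogenous β2-adrenergic receptors, luminescence read 15 min later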
DRD2 (D2 long receptor), sequence (P14416 whole entry): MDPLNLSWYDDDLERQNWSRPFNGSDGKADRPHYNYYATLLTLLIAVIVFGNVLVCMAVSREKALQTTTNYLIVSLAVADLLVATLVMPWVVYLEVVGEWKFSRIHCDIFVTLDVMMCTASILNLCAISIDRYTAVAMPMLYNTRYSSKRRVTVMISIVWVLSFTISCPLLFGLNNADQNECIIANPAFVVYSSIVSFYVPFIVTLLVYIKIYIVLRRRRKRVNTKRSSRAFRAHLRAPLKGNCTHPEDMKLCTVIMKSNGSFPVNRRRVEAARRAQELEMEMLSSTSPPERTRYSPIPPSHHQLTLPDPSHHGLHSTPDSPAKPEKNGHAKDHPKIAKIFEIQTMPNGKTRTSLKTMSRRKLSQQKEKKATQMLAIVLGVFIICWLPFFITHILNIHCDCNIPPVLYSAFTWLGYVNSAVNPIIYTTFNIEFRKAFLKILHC

[5] = biological target: T1, DRD2 F1103.28L (Homo sapiens, UniProt P14416, F110L); experiment: Gαi/o-mediated cAMP inhibition (GloSensor), mutant; type: cell-based
T1 construct: expressed in transfected cells; host or cells: HEK293T (ATCC CRL-11268)
T1 sequence (P14416 whole entry F110L): as the sequence (P14416 whole entry) above, with F110L counted along it

[6] = biological target: DRD2 (D2 long receptor) wild-type (Homo sapiens, UniProt P14416); experiment: Radioligand competition binding, [3H]-N-methylspiperone, HEK293T membranes; details: DRD2; [3H]-methylspiperone (0.8-1.0 nM); read-out: Ki
DRD2 (D2 long receptor) wild-type, sequence (P14416 whole entry): as the sequence (P14416 whole entry) above

[7] = biological target: T2, DRD4 (D4.4 variant) (Homo sapiens, UniProt P21917); experiment: β-arrestin2 recruitment (Tango); type: cell-based; details: DRD4; Tango; read-out: EC50 ± SEM
T2 sequence (P21917 1-419): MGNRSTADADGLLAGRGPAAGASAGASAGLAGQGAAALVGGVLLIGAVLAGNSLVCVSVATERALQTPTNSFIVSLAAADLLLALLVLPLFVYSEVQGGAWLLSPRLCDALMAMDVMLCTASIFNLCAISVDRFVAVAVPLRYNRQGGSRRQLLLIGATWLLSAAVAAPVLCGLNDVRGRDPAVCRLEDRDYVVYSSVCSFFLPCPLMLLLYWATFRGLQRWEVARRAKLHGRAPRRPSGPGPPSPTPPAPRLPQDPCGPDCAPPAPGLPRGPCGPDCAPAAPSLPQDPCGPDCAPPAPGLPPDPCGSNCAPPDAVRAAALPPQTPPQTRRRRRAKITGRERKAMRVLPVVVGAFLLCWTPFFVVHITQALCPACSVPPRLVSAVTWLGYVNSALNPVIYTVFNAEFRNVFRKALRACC

NCCc1c[nH]c2ccc(O)cc12 [serotonin]
response, Fig_S10l, replicate values ([1]; Log[Drug] -6.52): 89.1482 and 68.7936 and 58.4442 | response, Fig_S10l, replicate values ([1]; Log[Drug] -7): 66.8775 and 42.3868 and 35.3098 and 60.5263 and 52.6042 and 58.638 and 24.4765 and 22.6408 and 30.0813 | response, Fig_S10l, replicate values ([1]; Log[Drug] -7.52): 68.5906 and 51.7176 and 27.5973 and 17.0437 and 36.727 and -5.864 and 8.121 and 12.6341 and 15.0506 | response, Fig_S10l, replicate values ([1]; Log[Drug] -8): 24.3997 and 25.1743 and 11.0247 and 13.4188 and 3.861 and -8.27 and 5.486 and 9.516 and -0.3454 | response, Fig_S10l, replicate values ([1]; Log[Drug] -8.52): 28.2691 and 10.8991 and 0.6654 and 20.8515 and 4.218 and 3.753 and -2.601 and -10.3369 and 7.58 | response, Fig_S10l, replicate values ([1]; Log[Drug] -9): 8.291 and 7.398 and -4.407 and 28.3765 and 10.5666 and -13.7434 and -1.811 and 21.0925 and -2.254 | response, Fig_S10l, replicate values ([1]; Log[Drug] -9.52): 15.1454 and -8.903 and -7.678 and 11.6014 and -2.921 and -5.371 and 3.959 and 0.2537 and -8.706 | response, Fig_S10l, replicate values ([1]; Log[Drug] -10): 10.6015 and 17.2844 and 5.47 and 9.7774 and -6.372 and -8.832 and 0.1972 and 15.6666 and 6.603 | response, Fig_S10l, replicate values ([1]; Log[Drug] -10.52): 14.0658 and 3.099 and 4.084 and 6.9236 and -15.9908 and -3.571 and 14.7648 and -9.016 and -4.897 | response, Fig_S10l, replicate values ([1]; Log[Drug] -11): 11.925 and 9.507 and -4.609 and 40.988 and 1.279 and -23.0265 and -4.413 and 0.5655 and 2.993 | response, Fig_S10l, replicate values ([1]; Log[Drug] -11.52): 29.1466 and 5.5415 and 2.1791 and 13.0085 and 1.916 and 6.51 and 8.732 and 12.6601 | response, Fig_S10l, replicate values ([1]; Log[Drug] -12): 12.8871 and 8.151 and 29.2053 and 0.5174 and 13.376 and 13.9134 and 1.483 and -15.396 | Fig_S10k dose-response, drug alone (agonist mode), β-arrestin2 recruitment ([2]; Log[Drug] -7): 2.15 and 3.679 and 4.811 and -0.4868 and 5.6493 and -0.2054 | Fig_S10k dose-response, drug alone (agonist mode), β-arrestin2 recruitment ([2]; Log[Drug] -7.52): -0.7997 and 2.965 and 17.8531 and -0.2054 and -0.763 and 5.3131 and 4.228 and 3.612 and 4.7477 | Fig_S10k dose-response, drug alone (agonist mode), β-arrestin2 recruitment ([2]; Log[Drug] -8): -3.989 and -1.195 and 1.849 and -1.365 and -2.184 and 9.999 and -0.5868 and 4.719 | Fig_S10k dose-response, drug alone (agonist mode), β-arrestin2 recruitment ([2]; Log[Drug] -8.52): -0.2128 and 3.793 and -1.972 and 2.067 and -0.1908 and -0.1834 and -1.527 and -2.08 and -0.286 and -0.3848 and 2.472 and 0.1395 | Fig_S10k dose-response, drug alone (agonist mode), β-arrestin2 recruitment ([2]; Log[Drug] -9): 2.751 and -4.014 and -3.749 and 5.589 and 0.3815 and 2.971 and 0.02275 and 2.73 and 0.208 and 0.558 and 0.5339 | Fig_S10k dose-response, drug alone (agonist mode), β-arrestin2 recruitment ([2]; Log[Drug] -9.52): 1.871 and 1.852 and -0.4489 and -0.2054 and 2.157 and -3.113 and 1.313 and -0.39 and 0.00481 and 0.7312 and 5.479 | Fig_S10k dose-response, drug alone (agonist mode), β-arrestin2 recruitment ([2]; Log[Drug] -10): 0.9831 and -1.745 and 1.865 and 2.4358 and -0.7924 and 0.9424 and -2.603 and -1.547 and -0.3848 and 0.8707 and 19.7653 | Fig_S10k dose-response, drug alone (agonist mode), β-arrestin2 recruitment ([2]; Log[Drug] -10.52): 1.062 and 0.5626 and 5.943 and 0.675 and 1.189 and 0.1462 and -0.6434 and -0.1876 and 0.3223 | Fig_S10k dose-response, drug alone (agonist mode), β-arrestin2 recruitment ([2]; Log[Drug] -11): -1.391 and 0.03161 and 5.943 and 0.3155 and -1.667 and -1.459 and -0.8081 | Fig_S10k dose-response, drug alone (agonist mode), β-arrestin2 recruitment ([2]; Log[Drug] -11.52): 2.458 and 6.164 and 3.035 and 8.661 and 1.783 and -1.534 and 0.9332 | Fig_S10k dose-response, drug alone (agonist mode), β-arrestin2 recruitment ([2]; Log[Drug] -12): 0.4182 and -4.489 and -0.5209 and 0.1755 and -2.72 and 0.5037 and -1.135 and 0.1924 and 0.9524

CCOc1cccc2cc(C(C)NCC3(O)CCCCC3)oc12 (stereo not shown) [O4LE6]
EC50 ([3]; read-out: EC50 ± SEM): 0.7085 ± 0.0063 µM | Emax ([3]; read-out: Emax relative to quinpirole response): 15.8% | EC50 ([4]; DRD2, agonist, Gαi/o-mediated cAMP inhibition, read-out: EC50 ± SEM): 0.00057 µM | response, Fig_S11d dose-response source data ([4]; Log[Drug] -6.52): 93.5634 | response, Fig_S11d dose-response source data ([4]; Log[Drug] -7): 91.3799 and 89.9656 and 96.7642 and 92.7028 and 90.0117 and 92.9852 and 92.6706 and 90.0792 and 94.9443 | response, Fig_S11d dose-response source data ([4]; Log[Drug] -7.52): 89.3701 and 83.9361 and 92.3724 and 89.5789 and 91.7807 and 86.0032 and 96.0478 and 86.7857 and 84.4618 | response, Fig_S11d dose-response source data ([4]; Log[Drug] -8): 70.6367 and 72.3736 and 84.6805 and 78.0803 and 77.3651 and 77.1016 and 86.6519 and 79.5632 and 77.7576 | response, Fig_S11d dose-response source data ([4]; Log[Drug] -8.52): 93.2656 and 95.6724 and 92.9431 and 77.1769 and 79.2659 and 71.4182 and 77.4232 and 75.6176 and 79.697 | response, Fig_S11d dose-response source data ([4]; Log[Drug] -9): 51.5311 and 33.9143 and 52.5981 and 65.5842 and 66.7322 and 55.2712 and 58.2302 and 71.02 and 60.3368 | response, Fig_S11d dose-response source data ([4]; Log[Drug] -9.52): 27.2398 and 43.5167 and 44.7822 and 40.3099 and 41.1379 and 42.7564 and 40.5085 and 50.7403 and 30.2265 | response, Fig_S11d dose-response source data ([4]; Log[Drug] -10): 9.9455 and 25.9991 and 17.2652 and 20.7754 and 27.795 and 3.65 and 25.4283 and 30.0426 and 37.3152 | response, Fig_S11d dose-response source data ([4]; Log[Drug] -10.52): 8.06 and 24.1134 and 23.7164 and -2.2029 and 14.9603 and -7.6605 and -4.2473 and 22.3855 and 15.9154 | response, Fig_S11d dose-response source data ([4]; Log[Drug] -11): 4.9334 and 7.216 and -1.766 and -6.3996 and -4.3107 and -5.3646 and 21.048 and 18.6238 and 5.767 | response, Fig_S11d dose-response source data ([4]; Log[Drug] -11.52): 10.5658 and 8.68 and -1.4434 and 5.588 and 4.9296 and 13.8311 and 19.0585 and 28.0698 and 34.2223 | response, Fig_S11d dose-response source data ([4]; Log[Drug] -12): -7.7209 and 3.569 and -11.1202 and -5.7974 and -18.3122 and 14.3957 and 12.4212 and 21.7836 and -1.1209 | Emax ([4]; HEK-293T, read-out: Emax relative to quinpirole response, DRD2, cAMP inhibition): 94.8% | Response, Fig_S11b dose-response ([4]; Log[Drug] -5): 94.6799 and 95.4987 and 95.201 and 94.3966 and 96.6361 and 95.6198 and 95.7635 and 88.9256 and 95.1617 | Response, Fig_S11b dose-response ([4]; Log[Drug] -5.52): 94.4814 and 96.3424 and 99.171 and 96.9372 and 94.2837 and 95.6198 and 98.4051 and 98.5221 and 95.5796 | Response, Fig_S11b dose-response ([4]; Log[Drug] -6): 96.5905 and 98.1785 and 100.163 and 88.2615 and 91.4043 and 96.2597 and 93.8409 and 94.9611 and 95.7301 | Response, Fig_S11b dose-response ([4]; Log[Drug] -6.52): 93.5634 and 99.7168 and 93.0671 and 101.473 and 96.4667 and 100.061 and 98.4218 and 97.9202 and 92.704 | Response, Fig_S11b dose-response ([4]; Log[Drug] -7): 91.3799 and 89.9656 and 96.7642 and 92.7028 and 90.0117 and 92.9852 and 92.6706 and 90.0792 and 94.9443 | Response, Fig_S11b dose-response ([4]; Log[Drug] -7.52): 89.3701 and 83.9361 and 92.3724 and 89.5789 and 91.7807 and 86.0032 and 96.0478 and 86.7857 and 84.4618 | Response, Fig_S11b dose-response ([4]; Log[Drug] -8): 70.6367 and 72.3736 and 84.6805 and 78.0803 and 77.3651 and 77.1016 and 86.6519 and 79.5632 and 77.7576 | Response, Fig_S11b dose-response ([4]; Log[Drug] -8.52): 93.2656 and 95.6724 and 92.9431 and 77.1769 and 79.2659 and 71.4182 and 77.4232 and 75.6176 and 79.697 | Response, Fig_S11b dose-response ([4]; Log[Drug] -9): 51.5311 and 33.9143 and 52.5981 and 65.5842 and 66.7322 and 55.2712 and 58.2302 and 71.02 and 60.3368 | Response, Fig_S11b dose-response ([4]; Log[Drug] -11): 4.9334 | Response, Fig_S11b dose-response ([4]; Log[Drug] -11.52): 10.5658 and 8.68 and -1.4434 and 5.588 and 4.9296 and 13.8311 and 19.0585 and 28.0698 and 34.2223 | Response, Fig_S11b dose-response ([4]; Log[Drug] -12): -7.7209 and 3.569 and -11.1202 and -5.7974 and -18.3122 and 14.3957 and 12.4212 and 21.7836 and -1.1209 | EC50 ([5]; DRD2 F1103.28L (b138 head prints DRD2 F1063.28L)): 0.0113 ± 0.00227 µM | Emax ([5]; read-out: Emax relative to quinpirole response, DRD2 F1103.28L): 61% | Ki [6]: 1.91 µM and 1.9 µM | EC50 [7]: > 10 µM
